Laboratory results from patent publication US20250353873A1, “COMPOUNDS AND METHODS FOR MODULATING APOE EXPRESSION” (Ionis Pharmaceuticals, Inc., priority 2024, published 2025).
Strand notation (5' to 3'): a small letter for the sugar, then the base; units joined by * are phosphorothioate-linked, units joined directly phosphodiester-linked; [ ] holds rarer units or linkages, { } end groups; capitals alone tell only the bases. [ms] = mesyl phosphoramidate linkage; e = 2'-O-(2-methoxyethyl) (MOE); k = constrained ethyl (cEt); [5mC] = 5-methylcytosine; d = 2'-deoxy (DNA)

Tests used:
human APOE RNA [1] = assay: Dose-dependent inhibition of human APOE RNA in HepG2 cells, electroporation, 24 hours (Example 6); type: cell-based
Procedure: Modified oligonucleotides selected from the examples above were tested at various doses in HepG2.
HepG2 cells plated at a density of 50,000 cells per well were treated by electroporation with various concentrations of modified oligonucleotide as specified in the tables below. […] APOE RNA levels were measured using the human primer probe set RTS3073 (described herein above). APOE RNA levels were normalized to human GAPDH. Human GAPDH was amplified using human primer probe set RTS 104 (described herein above). Results are presented as percent APOE RNA, relative to the amount of APOE RNA in untreated control cells (% UTC). The half maximal inhibitory concentration (IC50) of each modified oligonucleotide was calculated in GraphPad Prism 10 (GraphPad Software, San Diego, CA) and is also presented in the tables below.

human APOE RNA [2] = assay: Dose-dependent inhibition of human APOE RNA in HepG2 cells, electroporation, 50,000 cells per well, RT-PCR normalized to GAPDH (Example 4, Tables 8-10); type: cell-based; details: HepG2, electroporation
Procedure: Modified oligonucleotides selected from the examples above were tested at various doses in HepG2 cells. The modified oligonucleotides were tested in a series of experiments that had the same culture conditions. Each experiment is identified in separate tables below.
HepG2 cells plated at a density of 50,000 cells per well were treated by electroporation with various concentrations of modified oligonucleotide as specified in the tables below. […] APOE RNA levels were measured using the human primer probe set RTS3073 (forward sequence […], designated herein as SEQ ID NO: 7; reverse sequence CCATCAGCGCCCTCAGTT, designated herein as SEQ ID NO: 8; probe sequence […], designated herein as SEQ ID NO:9). APOE RNA levels were normalized to human GAPDH. […] Results are presented as percent APOE RNA, relative to the amount of APOE RNA in untreated control cells (UTC).

Row | Substance | APOE RNA (% UTC) (human APOE RNA [2]; 5 nM, 24-hour treatment) | APOE RNA (% UTC) (human APOE RNA [2]; 13 nM, 24-hour treatment) | APOE RNA (% UTC) (human APOE RNA [2]; 33 nM, 24-hour treatment) | APOE RNA (% UTC) (human APOE RNA [2]; 82 nM, 24-hour treatment) | APOE RNA (% UTC) (human APOE RNA [2]; 205 nM, 24-hour treatment) | APOE RNA (% UTC) (human APOE RNA [2]; 512 nM, 24-hour treatment) | APOE RNA (% UTC) (human APOE RNA [2]; 1,280 nM, 24-hour treatment) | APOE RNA (% UTC) (human APOE RNA [2]; 3,200 nM, 24-hour treatment) | APOE RNA (% UTC) (human APOE RNA [2]; 8,000 nM, 24-hour treatment) | APOE RNA (% UTC) (human APOE RNA [2]; 20,000 nM, 24-hour treatment) | IC50 (human APOE RNA [2]; 24-hour treatment) [nM] | APOE RNA (% UTC) (human APOE RNA [2]; 5 nM, 16-hour treatment) | APOE RNA (% UTC) (human APOE RNA [2]; 13 nM, 16-hour treatment) | APOE RNA (% UTC) (human APOE RNA [2]; 33 nM, 16-hour treatment) | APOE RNA (% UTC) (human APOE RNA [2]; 82 nM, 16-hour treatment) | APOE RNA (% UTC) (human APOE RNA [2]; 205 nM, 16-hour treatment) | APOE RNA (% UTC) (human APOE RNA [2]; 512 nM, 16-hour treatment) | APOE RNA (% UTC) (human APOE RNA [2]; 1,280 nM, 16-hour treatment) | APOE RNA (% UTC) (human APOE RNA [2]; 3,200 nM, 16-hour treatment) | APOE RNA (% UTC) (human APOE RNA [2]; 8,000 nM, 16-hour treatment) | also measured
1 | 1736516 (e[5mC]*eTeTeG*eG*kT*dG[ms]dA[ms]dA[ms]dT*d[5mC]*dT*dT*dT*dA[ms]dT*eT*eA*eA*eA; antisense) [Compound 1736516] | – | – | – | – | – | – | – | – | – | – | – | – | – | – | – | – | – | – | – | – | IC50 (human APOE RNA [1]): 1140 nM; APOE RNA (% UTC) (human APOE RNA [1]; 5 nM): 106 % UTC; APOE RNA (% UTC) (human APOE RNA [1]; 13 nM): 110 % UTC; APOE RNA (% UTC) (human APOE RNA [1]; 33 nM): 121 % UTC; APOE RNA (% UTC) (human APOE RNA [1]; 82 nM): 117 % UTC; APOE RNA (% UTC) (human APOE RNA [1]; 205 nM): 58 % UTC; APOE RNA (% UTC) (human APOE RNA [1]; 512 nM): 59 % UTC; APOE RNA (% UTC) (human APOE RNA [1]; 1,280 nM): 39 % UTC; APOE RNA (% UTC) (human APOE RNA [1]; 3,200 nM): 29 % UTC; APOE RNA (% UTC) (human APOE RNA [1]; 8,000 nM): 32 % UTC; APOE RNA (% UTC) (human APOE RNA [1]; 20,000 nM): 22 % UTC
2 | 1736517 (e[5mC]*eTeTeG*kG*kT*dG[ms]dA[ms]dA[ms]dT*d[5mC]*dT*dT*dT*dA[ms]dT*eT*eA*eA*eA; antisense) [Compound 1736517] | – | – | – | – | – | – | – | – | – | – | – | – | – | – | – | – | – | – | – | – | IC50 (human APOE RNA [1]): 470 nM; APOE RNA (% UTC) (human APOE RNA [1]; 5 nM): 106 % UTC; APOE RNA (% UTC) (human APOE RNA [1]; 13 nM): 92 % UTC; APOE RNA (% UTC) (human APOE RNA [1]; 33 nM): 94 % UTC; APOE RNA (% UTC) (human APOE RNA [1]; 82 nM): 84 % UTC; APOE RNA (% UTC) (human APOE RNA [1]; 205 nM): 57 % UTC; APOE RNA (% UTC) (human APOE RNA [1]; 512 nM): 42 % UTC; APOE RNA (% UTC) (human APOE RNA [1]; 1,280 nM): 35 % UTC; APOE RNA (% UTC) (human APOE RNA [1]; 3,200 nM): 22 % UTC; APOE RNA (% UTC) (human APOE RNA [1]; 8,000 nM): 13 % UTC; APOE RNA (% UTC) (human APOE RNA [1]; 20,000 nM): 10 % UTC
3 | 1746785 (k[5mC]*kT*dT[ms]kG*dG[ms]dT[ms]dG[ms]dA[ms]dA[ms]dT*d[5mC]*dT*dT*dT*dA[ms]dT*kT*kA*dA[ms]kA; antisense) [Compound 1746785] | 90 | 93 | 97 | 84 | 83 | 53 | 48 | 29 | 8 | 35 | 1040 | – | – | – | – | – | – | – | – | – | –
4 | 1746791 (k[5mC]*dT[ms]dT[ms]kG*kG*dT[ms]dG[ms]dA[ms]dA[ms]dT*d[5mC]*dT*dT*dT*dA[ms]dT*kT*kA*dA[ms]kA; antisense) [Compound 1746791] | 88 | 104 | 93 | 88 | 80 | 62 | 35 | 21 | 16 | 21 | 850 | – | – | – | – | – | – | – | – | – | –
5 | 1746805 (k[5mC]*kT*dT[ms]kG*dG[ms]dT[ms]dG[ms]dA[ms]dA[ms]dT*d[5mC]*dT*dT*dT*dA[ms]dT*dT[ms]kA*kA*kA; antisense) [Compound 1746805] | 95 | 109 | 93 | 94 | 65 | 75 | 41 | 39 | 29 | 11 | 1360 | – | – | – | – | – | – | – | – | – | –
6 | 1746813 (k[5mC]*dT[ms]dT[ms]kG*dG[ms]kT*dG[ms]dA[ms]dA[ms]dT*d[5mC]*dT*dT*dT*dA[ms]dT*dT[ms]kA*kA*kA; antisense) [Compound 1746813] | 137 | 117 | 119 | 101 | 100 | 83 | 57 | 41 | 19 | 21 | 2250 | – | – | – | – | – | – | – | – | – | –
7 | 1747051 (k[5mC]*kT*dT[ms]kG*dG[ms]kT*dG[ms]dA[ms]dA[ms]dT*d[5mC]*dT*dT*dT*dA[ms]dT*kT*dA[ms]dA[ms]kA; antisense) [Compound 1747051] | 111 | 117 | 152 | 128 | 111 | 67 | 76 | 42 | 31 | 9 | 2900 | – | – | – | – | – | – | – | – | – | –
8 | 1747052 (k[5mC]*dT[ms]kT*kG*dG[ms]kT*dG[ms]dA[ms]dA[ms]dT*d[5mC]*dT*dT*dT*dA[ms]dT*kT*dA[ms]dA[ms]kA; antisense) [Compound 1747052] | 150 | 113 | 148 | 127 | 108 | 79 | 53 | 46 | 31 | 19 | 2710 | – | – | – | – | – | – | – | – | – | –
9 | 1747053 (k[5mC]*dT[ms]dT[ms]kG*kG*kT*dG[ms]dA[ms]dA[ms]dT*d[5mC]*dT*dT*dT*dA[ms]dT*kT*dA[ms]dA[ms]kA; antisense) [Compound 1747053] | 115 | 131 | 124 | 107 | 70 | 49 | 57 | 39 | 38 | 32 | 2170 | – | – | – | – | – | – | – | – | – | –
10 | 1757557: mixed MOE/cEt gapmer TTGGTGAATCTTTATTAA, sugar eeeeeddddddddeekke, linkages soossssssssssooss (eT*eTeGeG*eT*dG*dA*dA*dT*d[5mC]*dT*dT*dT*eAeTkT*kA*eA) [compound 1757557] | – | – | – | – | – | – | – | – | – | – | – | 79 | 88 | 89 | 88 | 86 | 89 | 94 | 59 | 36 | APOE RNA (% UTC) (human APOE RNA [2]; 20,000 nM, 16-hour treatment): 7 % UTC; IC50 (human APOE RNA [2]; 16-hour treatment): 4680 nM
11 | 1757566 (eA*e[5mC]eTkTkG*dG*dT*dG*dA*dA*dT*d[5mC]*dT*dT*dT*eAeTeT*eA*eA; antisense) [Compound 1757566] | – | – | – | – | – | – | – | – | – | – | – | 82 | 87 | 85 | 73 | 77 | 49 | 31 | 22 | 17 | APOE RNA (% UTC) (human APOE RNA [2]; 20,000 nM, 16-hour treatment): 21 % UTC; IC50 (human APOE RNA [2]; 16-hour treatment): 550 nM
12 | 1757569 (eA*e[5mC]eTkTkG*dG*dT*dG*dA*dA*dT*d[5mC]*dT*dT*dT*kAeTeT*eA*eA; antisense) [Compound 1757569] | – | – | – | – | – | – | – | – | – | – | – | 101 | 91 | 82 | 81 | 60 | 38 | 24 | 24 | 18 | APOE RNA (% UTC) (human APOE RNA [2]; 20,000 nM, 16-hour treatment): 18 % UTC; IC50 (human APOE RNA [2]; 16-hour treatment): 390 nM
13 | 1766537 (eT*eTeGeGeT*dG[ms]dA[ms]dA[ms]dT*d[5mC]*dT*dT*dT[ms]dA*dT*kTkAeA*eA*e[5mC]; antisense) [Compound 1766537] | – | – | – | – | – | – | – | – | – | – | – | 95 | 111 | 108 | 89 | 90 | 85 | 62 | 36 | 21 | APOE RNA (% UTC) (human APOE RNA [2]; 20,000 nM, 16-hour treatment): 5 % UTC; IC50 (human APOE RNA [2]; 16-hour treatment): 2010 nM
